US20070117743A1, “New antitumoral compounds” (priority 2003, published 2007)
Where a SMILES comes first, the peptide text is derived from it. Bridges are numbered along the chain shown (N, C = ends). [ ]: non-standard residue; d: D form. The star is where a group is joined. d(aIle) = CC[C@H](C)[C@@H](N)C(=O)O; d(aThr) = C[C@@H](O)[C@@H](N)C(=O)O; Hexanoyl(5-Me) = CC(C)CCCC(=O)*; Orn = NCCC[C@H](N)C(=O)O; Dhb = C/C=C(\N)C(=O)O

How the values were obtained:
Assay type in all cases: cell-based, human
K-562 = experiment: SRB colorimetric assay of cell growth and viability, K-562; conditions: 48 hours exposure; for CC50: read-out: LC50 K-562
HeLa = experiment: SRB colorimetric assay of cell growth and viability, HeLa; conditions: 48 hours exposure; for CC50: read-out: LC50 HELA
SK-BR-3 = experiment: SRB colorimetric assay of cell growth and viability, SK-BR-3; conditions: 48 hours exposure
LoVo = experiment: SRB colorimetric assay of cell growth and viability, LoVo; conditions: 48 hours exposure; for CC50: read-out: LC50 LOVO
IGROV-1 = experiment: SRB colorimetric assay of cell growth and viability, IGROV-1; conditions: 48 hours exposure
PANC-1 = experiment: SRB colorimetric assay of cell growth and viability, PANC-1; conditions: 48 hours exposure; for CC50: read-out: LC50 PANC-1
HeLa-APL = experiment: SRB colorimetric assay of cell growth and viability, HeLa-APL; conditions: 48 hours exposure; for CC50: read-out: LC50 HELA-APL
SK-MEL-28 = experiment: SRB colorimetric assay of cell growth and viability, SK-MEL-28; conditions: 48 hours exposure; for CC50: read-out: LC50 MEL-28
HT-29 = experiment: SRB colorimetric assay of cell growth and viability, HT-29; conditions: 48 hours exposure; for GI50: read-out: GI50 HT-29; for CC50: read-out: LC50 HT-29
IGROV-ET = experiment: SRB colorimetric assay of cell growth and viability, IGROV-ET; conditions: 48 hours exposure; for CC50: read-out: LC50 IGROV-ET
LNCaP = experiment: SRB colorimetric assay of cell growth and viability, LNCaP; conditions: 48 hours exposure; for GI50: read-out: GI50 LN-caP; for CC50: read-out: LC50 LN-caP
Description: The finality of this assay is to interrupt the growth of a “in vitro” tumor cell culture by means a continued exhibition of the cells to the sample to be testing.
This form of the assay employs 96 well cell culture microplates of 9 mm diameter (Faircloth, 1988; Mosmann, 1983). Most of the cell lines are obtained from American Type Culture Collection (ATCC) derived from different human cancer types.
Cells are maintained in RPMI 1640 10% FBS, supplemented with 0.1 g/l penicillin and 0.1 g/l streptomycin sulfate and then incubated at 37° C., 5% CO2 and 98% humidity. For the experiments, cells were harvested from subconfluent cultures using trypsin and resuspended in fresh medium before plating.
Cells are seeded in 96 well microtiter plates, at 5×10^3 cells per well in aliquots of 195 μL medium, and they are allowed to attach to the plate surface by growing in drug free medium for 18 hours. Afterward, samples are added in aliquots of 5 μL in a ranging from 10 to 10^−8 μg/mL, dissolved in DMSO:EtOH:PBS (0.5:0.5:99). After 48 hours exposure, the antitumor effect are measured by the SRB methodology: cells are fixed by adding 50 μL of cold 50% (wt/vol) trichloroacetic acid (TCA) and incubating for 60 minutes at 4° C. Plates are washed with deionized water and dried. One hundred μL of SRB solution (0.4% wt/vol in 1% acetic acid) is added to each microtiter well and incubated for 10 minutes at room temperature. Unbound SRB is removed by washing with 1% acetic acid. Plates are air dried and bound stain is solubilized with Tris buffer. Optical densities are read on a automated spectrophotometric plate reader at a single wavelength of 490 nm.
The values for mean+/− SD of data from triplicate wells are calculated. Some parameters for cellular responses can be calculated: GI=growth inhibition, TGI=total growth inhibition (cytostatic effect) and LC=cell killing (cytotoxic effect).

A-549 = experiment: SRB colorimetric assay of cell growth and viability, A-549; conditions: 48 hours exposure; for GI50: read-out: GI50 A-549; for CC50: read-out: LC50 A-549
DU-145 = experiment: SRB colorimetric assay of cell growth and viability, DU-145; conditions: 48 hours exposure

Structure (SMILES): C/C=C1\NC(=O)[C@H](Cc2ccccc2)NC(=O)[C@@H](C(C)C)NC(=O)[C@@H]([C@@H](C)CC)NC(=O)[C@H](NC(=O)[C@H](NC(=O)[C@H](CCCN)NC(=O)[C@H]2CCCN2C(=O)[C@H](NC(=O)CNC(=O)[C@@H](NC(=O)[C@H](NC(=O)CCCC(C)C)C(C)C)[C@@H](C)O)C(C)C)[C@@H](C)CC)[C@@H](C)OC(=O)[C@H](C(C)C)NC1=O [Compound 42, [Gly^11]-KF] ({Hexanoyl(5-Me)}-[dV]TG[dV][dP][Orn][d(aIle)][d(aThr)][d(aIle)][dV]F[Dhb]V; ester 8-C)
- GI50 (K-562): 1.82 µM
- TGI K-562 (K-562): 4.37E−06 Molar
- CC50 (K-562): 6.96 µM
- GI50 (HeLa): 6.96 µM
- TGI HELA (HeLa): 6.96E−06 Molar
- CC50 (HeLa): 6.96 µM
- GI50 (SK-BR-3): 6.96 µM
- LC50 (SK-BR-3): 6.96 µM
- TGI SK-BR-3 (SK-BR-3): 6.96E−06 Molar
- GI50 (LoVo): 3.87 µM
- TGI LOVO (LoVo): 6.96E−06 Molar
- CC50 (LoVo): 6.96 µM
- GI50 (IGROV-1): 4.61 µM
- LC50 (concentration causing 50% net cell killing) (IGROV-1): 6.96 µM
- TGI IGROV (IGROV-1): 6.96E−06 Molar
- GI50 (PANC-1): 5.08 µM
- TGI PANC-1 (PANC-1): 6.96E−06 Molar
- CC50 (PANC-1): 6.96 µM
- GI50 (HeLa-APL): 6.96 µM
- TGI HELA-APL (HeLa-APL): 6.96E−06 Molar
- CC50 (HeLa-APL): 6.96 µM
- GI50 (SK-MEL-28): 6.96 µM
- TGI MEL-28 (SK-MEL-28): 6.96E−06 Molar
- CC50 (SK-MEL-28): 6.96 µM
- TGI HT-29 (HT-29): 6.96E−06 Molar
- GI50 (HT-29): 6.96 µM
- CC50 (HT-29): 6.96 µM
- GI50 (IGROV-ET): 6.96 µM
- TGI IGROV-ET (IGROV-ET): 6.96E−06 Molar
- CC50 (IGROV-ET): 6.96 µM
- TGI LN-caP (LNCaP): 6.96E−06 Molar
- GI50 (LNCaP): 3.03 µM
- CC50 (LNCaP): 6.96 µM
- TGI A-549 (A-549): 6.96E−06 Molar
- GI50 (A-549): 6.96 µM
- CC50 (A-549): 6.96 µM
- GI50 (DU-145): 6.96 µM
- LC50 (concentration causing 50% net cell kill) (DU-145): 6.96 µM
- TGI DU-145 (DU-145): 6.96E−06 Molar

Structure (SMILES): C/C=C1\NC(=O)[C@H](Cc2ccccc2)NC(=O)[C@@H](C(C)C)NC(=O)[C@@H]([C@@H](C)CC)NC(=O)[C@H](NC(=O)[C@H](NC(=O)[C@H](CCCN)NC(=O)[C@H]2CCCN2C(=O)[C@H](NC(=O)[C@@H](NC(=O)[C@@H](NC(=O)[C@H](NC(=O)CCCCCCCCCCCCCCCCCCC)C(C)C)[C@@H](C)O)C(C)C)C(C)C)[C@@H](C)CC)[C@@H](C)OC(=O)[C@H](C(C)C)NC1=O [Compound 13, [Icos^14]-KF]
- GI50 (K-562): 1.23 µM
- TGI K-562 (K-562): 2.42E−06 Molar
- CC50 (K-562): 4.71 µM
- GI50 (HeLa): 1.4 µM
- TGI HELA (HeLa): 2.71E−06 Molar
- CC50 (HeLa): 5.25 µM
- GI50 (SK-BR-3): 0.861 µM
- LC50 (SK-BR-3): 3.99 µM
- TGI SK-BR-3 (SK-BR-3): 1.86E−06 Molar
- GI50 (LoVo): 0.903 µM
- TGI LOVO (LoVo): 1.79E−06 Molar
- CC50 (LoVo): 3.58 µM
- GI50 (IGROV-1): 1.36 µM
- LC50 (concentration causing 50% net cell killing) (IGROV-1): 4.68 µM
- TGI IGROV (IGROV-1): 2.52E−06 Molar
- GI50 (PANC-1): 2.02 µM
- TGI PANC-1 (PANC-1): 5.48E−06 Molar
- CC50 (PANC-1): 6.02 µM
- GI50 (HeLa-APL): 1.25 µM
- CC50 (HeLa-APL): 3.98 µM
- GI50 (SK-MEL-28): 1.25 µM
- TGI MEL-28 (SK-MEL-28): 2.21E−06 Molar
- CC50 (SK-MEL-28): 3.93 µM
- TGI HT-29 (HT-29): 2.32E−06 Molar
- GI50 (HT-29): 1.26 µM
- CC50 (HT-29): 4.28 µM
- GI50 (IGROV-ET): 1.66 µM
- TGI IGROV-ET (IGROV-ET): 2.81E−06 Molar
- CC50 (IGROV-ET): 4.79 µM
- TGI LN-caP (LNCaP): 2.39E−06 Molar
- GI50 (LNCaP): 1.21 µM
- CC50 (LNCaP): 4.73 µM
- TGI A-549 (A-549): 2.13E−06 Molar
- GI50 (A-549): 1.18 µM
- CC50 (A-549): 3.82 µM
- GI50 (DU-145): 1.28 µM
- LC50 (concentration causing 50% net cell kill) (DU-145): 4.04 µM
- TGI DU-145 (DU-145): 2.28E−06 Molar
